Laboratory results published in US7205387B2, “Recombinant polypeptide useful for neurotrophin receptor mediated gene delivery and as neurotrophin agonist” (Agency for Science, Technology and Research, priority 2003, dated 2007).
Bridge positions count the residues as written; N and C are the ends. Ends that are not written are not given here.

Experiments:
Erk1 and Erk2 = assay: Phospho-Erk1/Erk2 (p44/p42 MAPK) immunoblot in PC12 cells; format: cell-based, rat; conditions: for effect of TrkA inhibitor pre-treatment on NL4- and NL4-10K-induced phosphorylation of Erk1 and Erk2: 100 nM K-252a or 10 μM AG879, 10 min pre-incubation
Protocol: (§1) Immunoblotting experiments were conducted to test whether the chimeric polypeptides could, like NGF, induce autophosphorylation of TrkA and activation of its signal transduction pathways. PC12 cells were seeded in 6-well plates at a density of 2×10^6 cells/well and cultured in RPMI 1640 containing 0.5% FBS and 0.25% horse serum for 2 days. The low serum concentrations were necessary to reduce the basal levels of phosphorylation. The medium was refreshed two hours before beginning treatment. The cells were incubated with the polypeptides or NGF in serum-free medium for 15–20 min. The cells were then washed in PBS, lysed, and sonicated. The cell lysates were resolved by SDS-PAGE and transferred to a nitrocellulose membrane for immunoblotting. The primary antibodies used include Phospho-TrkA (Tyr490) antibody, Phospho-p44/p42 MAPK (Thr202/Tyr204) monoclonal antibody, and Phospho-Akt (Ser473) monoclonal antibody, all obtained from Cell Signaling Technology (Beverly, Mass., USA). Colorimetric detection was performed by standard techniques after using horse-radish peroxidase-conjugated secondary antibodies. In some experiments, TrkA tyrosine kinase inhibitors K-252a or AG879 (both from Calbiochem, La Jolla, Calif., USA) were used. In these cases, PC12 cells were incubated with 100 nM K-252a or 10 μM AG879 before addition of polypeptides or NGF.

[1] = system: PC12 (TrkA and p75^NTR positive) cells; assay: Gene delivery in vitro (pCAGluc luciferase reporter), PC12 cells; format: cell-based, rat; conditions: for dose-response of transfection efficiency with increasing amount of peptide: 1 μg pCAGluc/well, 100 μM chloroquine
Protocol: A PC12 (rat pheochromocytoma) cell line was obtained from ATCC (American Type Culture Collection, Manassas, Va., USA) and cultured in RPMI-1640 medium supplemented with 10% fetal bovine serum (FBS) and 5% horse serum. PC12 cells are known to express TrkA and p75^NTR receptors. A COS7 (African green monkey kidney fibroblast) cell line was obtained from ATCC and cultured in Dulbecco's modified Eagle's medium (DMEM) supplemented with 10% fetal bovine serum, 50 U/ml penicillin, and 50 μg/ml streptomycin. The cells were maintained in a 37° C., 5% CO2, humidified incubator.
To determine the transfection efficiencies of our nucleic acid delivery systems, we employ a reporter plasmid, pCAGluc (a gift from Yoshiharu Matsuura, National Institute of Infectious Diseases, Tokyo, Japan), encoding firefly luciferase under the control of the composite promoter, CAG. CAG comprises the chicken β-actin promoter and the cytomegalovirus immediate early enhancer.
TrkA-targeting gene delivery complexes were tested for transfection efficiency in vitro in PC12 (TrkA and p75^NTR positive) cells and COS7 (neurotrophin receptor negative) cells. The cells were grown to 50–70% confluency in microplate wells (24-, 48-, or 96-well plates). The gene delivery complexes were prepared according to specifications presented for each example. Transfection was accomplished by replacing the serum-enriched medium with half the usual volume of reduced-serum medium, Opti-MEM (Invitrogen), containing the gene delivery complexes. Where specifically mentioned, 100 μM of chloroquine was also added to help the complexes escape from endosomes. After four hours of incubation, the cells were restored to the normal medium volume and serum concentration, either by topping up with medium containing twice the usual serum concentration (RPMI-1640 with 20% FBS and 10% horse serum for PC12) or by completely replacing the medium.
One to two days after transfection, the cell culture medium was removed and the cells were rinsed in phosphate-buffered saline (PBS). Enough Reporter Lysis Buffer (Promega, Wisconsin, Md., USA) to cover the bottom surface was added to each well (50 μl/well for 48-well plates). After one freeze-thaw cycle, the lysates were tested for luciferase activity using the Luciferase Assay System (Promega) and a single-tube luminometer (Berthold Lumat L B 9507, Bad Wildbad, Germany). The total protein concentration of each lysate was determined using the DC Protein assay (Bio-Rad, Hercules, Calif., USA). The results were expressed in relative light units (RLU) per milligram of total protein.

plasmid DNA [2] = assay: DNA retardation assay (agarose gel electrophoresis); format: binding
Protocol: This assay qualitatively assesses the ability of a polypeptide or polycation to bind to DNA and thus to retard its migration (by decreasing its charge/mass ratio) through an agarose gel under electrophoresis. For a range of N/P ratios, polypeptide was added to 0.1 μg of plasmid DNA made up to 20 μl with either HEPES-buffered saline (HBS, 150 mM NaCl, 29 mM HEPES, pH 7.3) or 5% glucose. The mixtures were vortexed and incubated at room temperature for 30 minutes before being subjected to electrophoresis in a 0.8–1.0% Tris-borate-EDTA agarose gel stained with ethidium bromide for visualization under ultraviolet light.

TrkA = target: T1, TrkA (Rattus norvegicus, UniProt P35739); assay: Phospho-TrkA immunoblot in PC12 cells; format: cell-based; conditions: 5 μM peptide, 20 min
T1 construct: endogenous in cells; host or cells: PC12 (rat pheochromocytoma, ATCC)
T1 sequence (P35739 33-799): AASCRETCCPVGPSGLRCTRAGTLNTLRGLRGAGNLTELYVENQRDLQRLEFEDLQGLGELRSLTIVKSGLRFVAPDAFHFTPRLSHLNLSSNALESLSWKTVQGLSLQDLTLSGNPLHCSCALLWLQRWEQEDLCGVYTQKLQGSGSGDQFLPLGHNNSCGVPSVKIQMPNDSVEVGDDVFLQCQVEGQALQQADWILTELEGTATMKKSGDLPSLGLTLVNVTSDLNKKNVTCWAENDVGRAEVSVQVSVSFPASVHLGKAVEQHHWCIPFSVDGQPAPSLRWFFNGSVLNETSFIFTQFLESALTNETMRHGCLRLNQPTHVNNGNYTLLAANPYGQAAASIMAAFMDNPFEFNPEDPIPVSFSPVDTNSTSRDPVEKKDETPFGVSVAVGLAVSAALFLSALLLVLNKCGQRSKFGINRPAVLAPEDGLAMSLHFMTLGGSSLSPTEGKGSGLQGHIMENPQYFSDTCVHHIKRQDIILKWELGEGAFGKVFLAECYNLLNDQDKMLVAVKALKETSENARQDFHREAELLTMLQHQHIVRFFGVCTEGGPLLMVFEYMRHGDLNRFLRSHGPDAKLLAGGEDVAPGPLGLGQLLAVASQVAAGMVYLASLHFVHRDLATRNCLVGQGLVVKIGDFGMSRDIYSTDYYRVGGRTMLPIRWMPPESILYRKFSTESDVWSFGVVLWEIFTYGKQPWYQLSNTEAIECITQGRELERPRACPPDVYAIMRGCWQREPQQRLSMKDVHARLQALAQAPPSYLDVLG
Protocol: as §1

Akt = assay: Phospho-Akt immunoblot in PC12 cells; format: cell-based, rat; conditions: 5 μM peptide, 20 min
Protocol: as §1

PC12 cells = assay: PC12 cell survival assay (MTT, serum-free medium); format: cell-based, rat; conditions: differentiated PC12, serum and NGF deprived 4 days; 0.125 to 2.5 μM; NGF 10 ng/ml control
Protocol: Undifferentiated or differentiated (by 6-day treatment with 10 ng/ml NGF) PC12 cells seeded onto collagen-coated 96-well plates were exposed to serum-free RPMI-1640 medium containing either NGF or various concentrations of chimeric polypeptides. After 3–4 days of incubation, cell viability was measured by the standard MTT assay. Cell survival was expressed as a percentage of the viability of the NGF-treated control.

primary cortical neurons = assay: Gene delivery to primary cultures of cortical neurons; format: cell-based, rat
Protocol: Primary cultures of neurons were established from the cortices of embryonic Wistar rats at gestational day 20. Cortices freed of meninges were dissected and individual cells were dispersed mechanically by trituration of minced tissue in 3 ml DMEM medium supplemented with 2% FBS. The suspension was allowed to settle in a centrifuge tube. The cells in the supernatant were collected by centrifugation and resuspended gently in DMEM with 10% FBS. Viability of the cells was assessed prior to plating using trypan blue. Cells were plated onto microplates pre-coated with poly-L-lysine/laminin at a density of 7.5×10^5 viable cells/cm^2. After a two-hour incubation period to allow neurons to attach, the medium and unattached cells were removed and replaced by serum-free DMEM/F12 medium with 1% N2 supplement (Invitrogen, Carlsbad, Calif., USA). The cell were then incubated at 37° C. in 5% CO2 in a humidified incubator. After 2–5 days of culture, the neuron cells were used for transfection experiments. Gene delivery complexes were also tested on primary cultures of cortical neurons and glial cells in a similar fashion. […] Four hours later, an equal volume of DMEM-F12/N2 was added. One to two days after transfection, the cell culture medium was removed and the cells were rinsed in phosphate-buffered saline (PBS). Enough Reporter Lysis Buffer (Promega, Wisconsin, Md., USA) to cover the bottom surface was added to each well (50 μl/well for 48-well plates). After one freeze-thaw cycle, the lysates were tested for luciferase activity using the Luciferase Assay System (Promega) and a single-tube luminometer (Berthold Lumat L B 9507, Bad Wildbad, Germany). The total protein concentration of each lysate was determined using the DC Protein assay (Bio-Rad, Hercules, Calif., USA). The results were expressed in relative light units (RLU) per milligram of total protein.

primary glial cells = assay: Gene delivery to primary cultures of glial cells; format: cell-based, rat
Protocol: Primary cultures of glial cells were established from the cortices of 20-day old embryonic Wistar rats. Individual cells were collected as described above. The cells were plated at a density of 4×10^5 viable cells/cm^2 on poly-L-lysine/laminin coated dishes and grown to confluence for 7 days in DMEM/F12 medium supplemented with 10% FCS. The day before transfection, the cells were detached and plated into coated microplates at a density of 2.5×10^4 cells per well. Gene delivery complexes were also tested on primary cultures of cortical neurons and glial cells in a similar fashion. […] Four hours later, an equal volume of DMEM-F12/N2 was added. One to two days after transfection, the cell culture medium was removed and the cells were rinsed in phosphate-buffered saline (PBS). Enough Reporter Lysis Buffer (Promega, Wisconsin, Md., USA) to cover the bottom surface was added to each well (50 μl/well for 48-well plates). After one freeze-thaw cycle, the lysates were tested for luciferase activity using the Luciferase Assay System (Promega) and a single-tube luminometer (Berthold Lumat L B 9507, Bad Wildbad, Germany). The total protein concentration of each lysate was determined using the DC Protein assay (Bio-Rad, Hercules, Calif., USA). The results were expressed in relative light units (RLU) per milligram of total protein.

plasmid DNA [3] = assay: Atomic force microscopy of polypeptide-DNA complexes; format: physicochemical; conditions: N/P ratio of 10
Protocol: DNA samples, polypeptide-DNA complexes, and polypeptide-polycation-DNA complexes were prepared with a DNA concentration of 0.02 mg/ml. The samples were diluted ten-fold in HPLC-grade water, and 20 μl of each sample was deposited onto mica discs. After one minute, the mica discs were washed with HPLC-grade water and dried in a stream of filtered air. Images were acquired on a Nanoscope IIIa atomic force microscope (Digital Instruments, Santa Barbara, Calif., USA) operating in tapping mode in air, using Nanoprobe Silicon tips (Digital Instruments).

[4] = 0.25 μg/well pCAGluc, PEI600-based complexes
[5] = pCAGluc/SPKR4BL1-2 without PEI600, 0.25 μg/well

CC(C)(C)c1cc(/C=C(\C#N)C(N)=S)cc(C(C)(C)C)c1O [AG879, reference compound]
effect of TrkA inhibitor pre-treatment on NL4- and NL4-10K-induced phosphorylation of Erk1 and Erk2 (Erk1 and Erk2): greatly reduced

COC(=O)[C@@]1(O)C[C@H]2O[C@]1(C)n1c3ccccc3c3c4c(c5c6ccccc6n2c5c31)C(=O)NC4 [K-252a, reference compound]
effect of K-252a on Erk phosphorylation induced by 8 μM SPKR4NL1-2 (Erk1 and Erk2; 0, 10, 20, 50 and 100 nM K-252a, 10 min pre-incubation): reduced and eventually eliminated | effect of TrkA inhibitor pre-treatment on NL4- and NL4-10K-induced phosphorylation of Erk1 and Erk2 (Erk1 and Erk2): greatly reduced

KKKKKKKKKK (artificial sequence lysine 10) [10K, ten consecutive lysine residues, reference compound]
dose-response of transfection efficiency with increasing amount of peptide [1]: Neither NL4 (targeting domain only) nor 10K (DNA-binding domain only) nor a mixture of the two exhibited this dose-responsive trend | reduction of efficiency of NL4-10K/pCAGluc gene delivery by excess free competitor ([1]; competitor present during transfection, complexes at N/P ratio of 5, 100 μM chloroquine): did not have a significant effect

NGF: nerve growth factor, neurotrophin; competitor and positive control
effect of added NGF on transfection by (SPKR)4/DNA/PEI600 ([1]; NGF 200 ng/ml): no significant effect | effect of added NGF on transfection by SPKR4NL1-2/DNA/PEI600 ([1]; NGF 200 ng/ml during transfection): greatly reduces the transfection efficiency

NL4: loop 4 of NGF and the flanking β-sheet sequences, amino acids 80–108; targeting domain only (CTTTHTFVKALTMDGKQAAWRFIRIDTAC; disulfide 1-29)
DNA binding / retardation of DNA migration (in words) (plasmid DNA [2]): does not retard DNA migration | dose-response of transfection efficiency with increasing amount of peptide [1]: Neither NL4 (targeting domain only) nor 10K (DNA-binding domain only) nor a mixture of the two exhibited this dose-responsive trend | activation (phosphorylation) of TrkA (TrkA): induced activation | activation (phosphorylation) of Erk 1 and Erk 2 (Erk1 and Erk2; 5 μM peptide, 20 min): induced activation | activation (phosphorylation) of Akt (Akt): induced activation | cell survival rate as % of optimal NGF-promoted survival (PC12 cells): 68–109%

SPKRSPKRSPKRSPKR (artificial sequence SPKR4) [(SPKR)4, reference compound]
transgene expression (in words) (primary cortical neurons; [4]): enhances transgene expression | transgene expression (in words) (primary glial cells; [4]): enhances transgene expression

B1: SPKR4BL1-2: chimeric protein analogous to SPKR4NL1-2 with loops 1 and 2 of BDNF (aa 22–74) to bind TrkB (protein)
chain: MGHHHHHHHHHHSSGHIEGRHMSPKRSPKRSPKRSPKRGGTYLSEDELKAAEAAFKRHNPTGSCSISEWVTAADKKTAVDMSGGTVTVLEKVPVSKGQLKQYFYETKCNPMGYTKEG
modifications: SPKR4BL1-2
N/P ratio at which plasmid DNA is completely retarded (complex immobile) (plasmid DNA [2]; 0.1 μg plasmid DNA, agarose gel): 2 N/P ratio | peptide/DNA amount equivalent to the N/P ratio of complete retardation (plasmid DNA [2]; N/P ratio of 2): 0.8 nmol/ug DNA | diameter of condensed plasmid DNA particles (plasmid DNA [3]): under 200 nm | increase of transgene expression with increasing SPKR4BL1-2 (primary cortical neurons; PEI600 fixed at N/P ratio of 10, 0.25 μg/well pCAGluc, highest ratio used): up to 500 fold | transgene expression relative to PEI600/DNA (primary glial cells; [5]): 50 times | transgene expression relative to naked DNA (primary glial cells; [5]): 180 times
